For this experiment, the target named is Adenosylhomocysteinase (Bos taurus). Put plainly: Inhibitory activity against bovine liver S-adenosyl-L-homocysteine hydrolase (AdoHcy) rate of inactivation by NpcA.

Molecules are shown by their SMILES.

Regarding `Nc1ncnc2c1ncn2[C@@H]1C=C[C@@H](O)[C@H]1O`, the Ki came to 49 nM.

The compound `Nc1ncnc2c1ncn2[C@@H]1C[C@H](c2ccccc2)[C@@H](O)[C@H]1O` displayed a Ki of 67600 nM.

`CC[C@H]1C[C@@H](n2cnc3c(N)ncnc32)[C@H](O)[C@@H]1O` returned a Ki of 586 nM.

As for `C[C@@H]1C[C@@H](n2cnc3c(N)ncnc32)[C@H](O)[C@@H]1O`, the Ki is 5020 nM.

`C=C[C@H]1C[C@@H](n2cnc3c(N)ncnc32)[C@H](O)[C@@H]1O` had a Ki of 22 nM.

Turning to `C[C@H]1C[C@@H](n2cnc3c(N)ncnc32)[C@H](O)[C@@H]1O`, the Ki is 27 nM.

Take `CC1=C[C@@H](n2cnc3c(N)ncnc32)[C@H](O)[C@@H]1O`: the Ki amounted to 9150 nM.

The compound `Nc1ncnc2c1ncn2[C@@H]1CC[C@@H](O)[C@H]1O` [(1R,2S,3R)-3-(6-amino-9H-purin-9-yl)cyclopentane-1,2-diol] yielded a Ki of 12 nM.

Source of the values: BindingDB's records for doi:10.1021/jm00088a013 (University of Kansas, 1992).
